Literature values as cited in patent US20130065959A1, “SANITIZING MEAT WITH PERACID AND 2-HYDROXY ORGANIC ACID COMPOSITIONS” (Fresh Express Incorporated, priority 2009, published 2013).

settings: cited from earlier work

In order of rising “Oxidation Capacity” value:
1. OCl [Sodium hypochlorite (Chlorine bleach), Sodium hypochlorite]  1.36 eV
2. [O][Cl+][O-] [Chlorine Dioxide]  1.57 eV
3. O=[O+][O-] [Ozone]  2.07 eV
